This note sets out measurements from US20240318160A1 (Wisconsin Alumni Research Foundation, priority 2023, published 2024).

Common to all, as to assay type: biochemical
The test system of assay [1] is Joinvillea ascendens JaPAL variant F140H/S112I (JaPAL^F140H_S112I), SEQ ID NO: 145. Briefly: TAL and PAL enzyme kinetics. The settings on record: TAL assay (L-Tyr), pH 8.5, 30° C. As to the method: To test this hypothesis further, the reciprocal S112I mutation was introduced into the JaPAL^F140H single mutant to generate the JaPAL^F140H_S112I double mutant. For comparison, a single mutant in which the residue corresponding to Ser112 was converted to Ile (i.e., JaPAL^S112I) was generated as well.
(§1) A mixture containing 100 mM Tris-HCl (pH 8.5), 1% glycerol, and purified enzyme in a total volume of 50 μl was preincubated for 3 min at 30° C. […] The reactions were terminated by addition of 6N acetic acid (10 μl).
(§2) The kinetic parameters of the recombinant enzymes were determined using HPLC. Reaction mixtures containing 100 mM Tris-HCl (pH 8.5), 1% glycerol, and purified enzyme (0.15 μg for PAL assay and 1 μg for TAL assay) in a 50 μl total volume were preincubated for 3 min at 30° C. […] After 10 min and 20 min incubations for PAL and TAL assay, respectively, at 30° C., the reaction was terminated by addition of 6N acetic acid (10 μl). […] The products were quantified using calibration curves generated using authentic standards. Non-linear hyperbolic regression analyses were conducted using the Excel Solver tool to calculate Km and Vmax values.

Assay [2] deals with PAL^F140H mutants (JaPAL^F140H, EmoPAL^F134H, BdPAL^F137H, SbPAL^F135H). Briefly: TAL and PAL enzyme kinetics, group of enzymes. The note with it: TAL activity, range over mutants. The procedure:
as §2

Assay [3] deals with wild-type PTAL enzymes (SbPTAL, BdPTAL, SaPTAL-a, SaPTAL-b, EmoPTAL, JaPTAL). Briefly: TAL enzyme kinetics, group of enzymes. The settings on record: TAL activity (Tyr), range over PTAL enzymes; read-out: apparent Km. As to the method: as §2
The test system of assay [4] is Joinvillea ascendens JaPAL^F140H_MUT8 variant V500I. Briefly: TAL and PAL enzyme kinetics. The note with it: TAL assay (L-Tyr), pH 8.5, 30° C. As to the method: (§3) To determine which of the 8 circle residues are essential in the conversion of PAL enzymes to PTAL enzymes (FIG. 3C), we mutated, one by one, each one of these 8 residues back to the PAL type in JaPAL^F140H_MUT8 and determined their effects on catalytic efficiency.
as §1, §2

The test system of assay [5] is Joinvillea ascendens JaPAL^F140H_MUT8 variant G121A. Briefly: TAL and PAL enzyme kinetics. The note with it: TAL assay (L-Tyr), pH 8.5, 30° C. As to the method:
as §3, §1, §2

The test system of assay [6] is Joinvillea ascendens JaPAL^F140H_MUT8 variant T444P. Briefly: TAL and PAL enzyme kinetics. The settings on record: TAL assay (L-Tyr), pH 8.5, 30° C. As to the method: as §3, §1, §2
Assay [7] relates to Joinvillea ascendens JaPAL^F140H_MUT8 variant I122S (in Table 3; I112S in text). Briefly: TAL and PAL enzyme kinetics. The note with it: TAL assay (L-Tyr), pH 8.5, 30° C. The procedure:
as §3, §1, §2

Assay [8] relates to Joinvillea ascendens JaPAL^F140H_MUT8 variant A448S. Briefly: TAL and PAL enzyme kinetics. The note with it: TAL assay (L-Tyr), pH 8.5, 30° C. As to the method:
as §3, §1, §2

Assay [9] concerns Joinvillea ascendens JaPAL^F140H_MUT8 variant L138I. Briefly: TAL and PAL enzyme kinetics. The note with it: TAL assay (L-Tyr), pH 8.5, 30° C. As to the method: as §3, §1, §2
Assay [10] relates to Joinvillea ascendens JaPAL^F140H_MUT8 variant S267A. Briefly: TAL and PAL enzyme kinetics. The settings on record: TAL assay (L-Tyr), pH 8.5, 30° C. The procedure: as §3, §1, §2
In assay [11] the test system is Joinvillea ascendens JaPAL^F140H_MUT8 variant I102V. Briefly: TAL and PAL enzyme kinetics. The note with it: TAL assay (L-Tyr), pH 8.5, 30° C. As to the method: as §3, §1, §2
Assay [12] concerns Streptochaeta angustifolia SaPTAL-a variant H118F (SaPTAL-a^H118F). Briefly: TAL and PAL enzyme kinetics. The note with it: TAL assay (L-Tyr), pH 8.5, 30° C. The procedure: as §1, §2
In assay [13] the test system is Ecdeiocolea monostachya EmoPTAL variant H127F (EmoPTAL^H127F). Briefly: TAL and PAL enzyme kinetics. The note with it: TAL assay (L-Tyr), pH 8.5, 30° C. As to the method:
as §1, §2

Assay [14] concerns Streptochaeta angustifolia SaPTAL-b variant H126F (SaPTAL-b^H126F). Briefly: TAL and PAL enzyme kinetics. The note with it: TAL assay (L-Tyr), pH 8.5, 30° C. As to the method: as §1, §2
Assay [15] has as its system Ecdeiocolea monostachya EmoPAL variant F134H (EmoPAL^F134H). Briefly: TAL and PAL enzyme kinetics. The note with it: TAL assay (L-Tyr), pH 8.5, 30° C. As to the method:
as §1, §2

Assay [16] has as its system Sorghum bicolor SbPAL variant F135H (SbPAL^F135H). Briefly: TAL and PAL enzyme kinetics. The settings on record: TAL assay (L-Tyr), pH 8.5, 30° C. The procedure:
as §1, §2

For assay [17], the system named is Joinvillea ascendens JaPTAL, wild type, SEQ ID NO: 27. Briefly: TAL and PAL enzyme kinetics. The note with it: TAL assay (L-Tyr), pH 8.5, 30° C. The procedure:
as §1, §2

Assay [18] deals with Arabidopsis thaliana AtPAL1 variant F144H (AtPAL1^F144H), SEQ ID NO: 261 (Arabidopsis thaliana, UniProt P35510, F144H). Briefly: TAL and PAL enzyme kinetics. The settings on record: TAL assay (L-Tyr), pH 8.5, 30° C. As to the method:
as §1, §2

Assay [19] deals with PTAL^H140F mutants (SbPTAL^H123F, BdPTAL^H123F, SaPTAL-a^H118F, SaPTAL-b^H126F, EmoPTAL^H127F, JaPTAL^H125F). Briefly: TAL and PAL enzyme kinetics, group of enzymes. The note with it: TAL activity, range over mutants. The source says:
To experimentally test the role of His 140 in the acquisition of TAL activity, we next conducted site-directed mutagenesis on the PAL and PTAL enzymes of grasses and non-grass graminids characterized above and analyzed their effects on TAL activity. For the PAL enzymes, the residue corresponding to Phe 140 was converted to His to generate JaPAL^F140H EmoPAL^F134H, BdPAL^F137H, and SbPAL^F135H. […] For the PTAL enzymes, the residue corresponding to His 140 was converted to Phe to generate SbPTAL^H123F, BdPTAL^H123F, SaPTAL-a^H118F, SaPTAL-b^H126F, EmoPTAL^H127F, and JaPTAL^H125F. […] Thus, unlike in the bacterial TAL enzyme (Watts et al., 2006), other residues besides the His 140 are likely important for the acquisition of strong TAL activity in the PTAL enzymes of grasses and closely-related non-grass graminids.
The kinetic parameters of the recombinant enzymes were determined using HPLC. Reaction mixtures containing 100 mM Tris-HCl (pH 8.5), 1% glycerol, and purified enzyme (0.15 μg for PAL assay and 1 μg for TAL assay) in a 50 μl total volume were preincubated for 3 min at 30° C. PAL and TAL reactions were started by addition of 50 μl substrate solution prepared with 0-4 mM L-Phe and 0-2 mM L-Tyr. After 10 min and 20 min incubations for PAL and TAL assay, respectively, at 30° C., the reaction was terminated by addition of 6N acetic acid (10 μl). […] The products were quantified using calibration curves generated using authentic standards. Non-linear hyperbolic regression analyses were conducted using the Excel Solver tool to calculate Km and Vmax values.

Sequence of Arabidopsis thaliana AtPAL1 variant F144H (AtPAL1^F144H), SEQ ID NO: 261 (P35510 whole entry F144H): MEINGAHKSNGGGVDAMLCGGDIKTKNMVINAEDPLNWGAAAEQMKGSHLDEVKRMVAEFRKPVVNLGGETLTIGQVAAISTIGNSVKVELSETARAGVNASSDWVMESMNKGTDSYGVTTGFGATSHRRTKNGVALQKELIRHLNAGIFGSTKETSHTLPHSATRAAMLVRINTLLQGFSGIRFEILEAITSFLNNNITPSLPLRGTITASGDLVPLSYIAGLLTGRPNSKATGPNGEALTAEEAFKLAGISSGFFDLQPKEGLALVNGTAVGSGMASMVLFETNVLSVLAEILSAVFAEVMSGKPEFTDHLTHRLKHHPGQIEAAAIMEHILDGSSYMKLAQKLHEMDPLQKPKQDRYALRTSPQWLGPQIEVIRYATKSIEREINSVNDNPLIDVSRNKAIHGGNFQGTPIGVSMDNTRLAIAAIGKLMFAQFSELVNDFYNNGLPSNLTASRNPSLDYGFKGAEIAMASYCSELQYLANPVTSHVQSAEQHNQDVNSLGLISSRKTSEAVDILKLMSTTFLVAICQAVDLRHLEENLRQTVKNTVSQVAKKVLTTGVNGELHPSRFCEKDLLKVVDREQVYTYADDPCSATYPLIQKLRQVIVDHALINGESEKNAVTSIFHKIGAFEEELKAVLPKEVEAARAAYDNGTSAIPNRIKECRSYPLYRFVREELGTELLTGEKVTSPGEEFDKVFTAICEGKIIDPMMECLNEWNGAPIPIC

`N[C@@H](Cc1ccc(O)cc1)C(=O)O` [L-Tyr, tyrosine]: the Km was 17.2 ± 0.7 µM in assay [1]; 222 to 450 µM in [2]; 11 to 19 µM in assay [3]; 25.1 ± 3.2 µM in [4]; 12.6 ± 0.6 µM in [5]; 25.3 ± 2.4 µM in [6]. Further, the Km in assay [7] came out at 282 ± 29 µM; in [8], 23.3 ± 1 µM; in assay [9] it was 18.3 ± 0.6 µM; in assay [10], 43.1 ± 1.5 µM; in assay [11], 24.5 ± 1.4 µM; in assay [12] it was 531 ± 13.2 µM. Besides, the Km was 614 ± 18.1 µM in assay [13]; 724 ± 54.8 µM in assay [14]; 450 ± 14.2 µM in assay [15]; 413 ± 6.5 µM in assay [16]; 11 ± 0.4 µM in assay [17]; 531 to 765 µM in assay [19]. Moreover, the kcat in assay [18] worked out at 0.01 ± 0.00 s⁻¹.
